This is an account of results in patent US20200138827A1, “SMALL MOLECULE MODULATORS OF HUMAN STING” (Curadev Pharma Limited, priority 2017, published 2020).

The target of this test is T1, WT/R232 STING protein (Homo sapiens, UniProt Q86WV6, H232R).
T1 construct: host or cells: HEK293T
Briefly: Luciferase reporter assay in HEK293T-hSTING-Luciferase cells, WT/R232. Format: cell-based. The settings on record: 20 hr stimulation, read-out: R232 Activity (EC50 range). An outline of the steps: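 Clonal HEK293T cells stably expressing human STING R232 plus an ISRE/ISG54-driven luciferase reporter, 5×10^5 per well, stimulated with compounds for 20 h. Secreted luciferase in supernatant measured by luminescence; […].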
In general terms: A reporter such as luciferase makes a cellular process visible.

T1 sequence (Q86WV6 whole entry H232R): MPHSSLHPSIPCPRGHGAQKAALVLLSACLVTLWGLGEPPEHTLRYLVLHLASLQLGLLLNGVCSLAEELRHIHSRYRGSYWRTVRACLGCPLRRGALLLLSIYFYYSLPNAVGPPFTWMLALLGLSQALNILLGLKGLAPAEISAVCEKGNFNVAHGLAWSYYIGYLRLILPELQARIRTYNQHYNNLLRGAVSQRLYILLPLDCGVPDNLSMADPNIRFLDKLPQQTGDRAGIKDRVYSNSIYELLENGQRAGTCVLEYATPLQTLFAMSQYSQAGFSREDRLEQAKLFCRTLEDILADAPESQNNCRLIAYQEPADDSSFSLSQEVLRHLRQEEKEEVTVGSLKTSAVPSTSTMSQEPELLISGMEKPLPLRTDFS

`O=C(NCc1c(F)cc(F)cc1F)c1ccc2c(c1)N(C(=O)c1c(F)cccc1Cl)CCO2` [Example 264, 4-(2-chloro-6-fluorobenzoyl)-N-(2,4,6-trifluorobenzyl)-3,4-dihydro-2H-benzo[b-1,4]oxazine-6-carboxamide]: the EC50 was more than 10 µM.

Regarding `O=C(NCC1CC1)c1ccc2c(c1)N(Cc1ccccc1F)C(=O)CS2` [Example 20, N-(cyclopropyl-methyl)-4-(2-fluorobenzyl)-3-oxo-3,4-dihydro-2H-benzo[b-1,4]thiazine-6-carboxamide], the concentration giving a half-maximal response (EC50) is more than 10 µM.

In the case of `O=C(O)CC1Sc2ccc(C(=O)NCc3ccco3)cc2N(Cc2ccccc2F)C1=O` (stereo not drawn) [Example 175, 2-(4-(2-fluorobenzyl)-6-((furan-2-ylmethyl)carbamoyl)-3-oxo-3,4-dihydro-2H-benzo[b][1,4]thiazin-2-yl)acetic acid], the EC50 is more than 10 µM.

In the case of `Cc1cc2c(cc1C(=O)NCc1ccco1)N(Cc1ccccc1)C(=O)CS2` [Example 230, 4-Benzyl-N-(furan-2-ylmethyl)-7-methyl-3-oxo-3,4-dihydro-2H-benzo[b-1,4]thiazine-6-carboxamide], the 50% effective concentration (EC50) is more than 10 µM.

With `O=C(NC(c1ccccc1)C1CCCCC1)c1ccc2c(c1)N(Cc1ccccc1F)C(=O)CS2` (stereo not drawn) [Example 110, N-(cyclohexyl (phenyl)methyl)-4-(2-fluorobenzyl)-3-oxo-3,4-dihydro-2H-benzo[b][1,4] thiazine-6-carboxamide], the EC50 is more than 10 µM.

As to `N#Cc1cc(C(=O)NCc2ccco2)cc2c1SCC(=O)N2Cc1cc(F)cc(F)c1` [Example 220, 8-cyano-4-(3,5-difluorobenzyl)-N-(furan-2-ylmethyl)-3-oxo-3,4-dihydro-2H-benzo[b-1,4]thiazine-6-carboxamide], the EC50 is more than 10 µM.

Regarding `Cc1ccc(CNC(=O)c2ccc3c(n2)N(Cc2cccc(C(N)=O)c2)C(=O)C(C)S3)o1` (stereo not drawn) [Example 205, 4-(3-carbamoyl-benzyl)-2-methyl-N-((5-methylfuran-2-yl)methyl)-3-oxo-3,4-dihydro-2H-pyrido[3,2-b][1,4]thiazine-6-carboxamide], the concentration giving a half-maximal response (EC50) lay in the range of 1 to 10 µM.

As for `Cc1cnc(CNC(=O)c2ccc3c(c2)N(Cc2cnn(C)c2)C(=O)C(C)S3)o1` (stereo not drawn) [Example 173, 2-methyl-4-((1-methyl-1H-pyrazol-4-yl)methyl)-N-((5-methyloxazol-2-yl)methyl)-3-oxo-3,4-dihydro-2H-benzo[b][1,4] thiazine-6-carboxamide], the concentration for a half-maximal effect (EC50) is more than 10 µM.

Regarding `O=C(NCC1CCCN(Cc2ccccc2)C1)c1ccc2c(c1)N(Cc1ccccc1F)C(=O)CS2` (stereo not drawn) [Example 44, N-((1-benzylpiperidin-3-yl)methyl)-4-(2-fluorobenzyl)-3-oxo-3,4-dihydro-2H-benzo[b][1,4] thiazine-6-carboxamide], the half-maximal effective concentration (EC50) is more than 10 µM.

As to `O=C(NCc1ccco1)c1ccc2c(c1)N(Cc1cc(F)ccc1Cl)C(=O)CS2` [Example 99, 4-(2-chloro-5-fluorobenzyl)-N-(furan-2-ylmethyl)-3-oxo-3,4-dihydro-2H-benzo[b-1,4]thiazine-6-carboxamide], the EC50 lay within 1 to 10 µM.

Regarding `O=C(NCc1ccco1)c1ccc2c(c1)N(Cc1ccc(Cl)s1)C(=O)CS2` [Example 95, 4-((5-chlorothiophen-2-yl)methyl)-N-(furan-2-ylmethyl)-3-oxo-3,4-dihydro-2H-benzo[b-1,4]thiazine-6-carboxamide], the half-maximal effective concentration (EC50) was more than 10 µM.

For `CC1Sc2ncc(C(=O)NCc3cccnn3)cc2N(Cc2cc(F)cc(F)c2)C1=O` (stereo not drawn) [Example 214, 1-(3,5-difluorobenzyl)-3-methyl-2-oxo-N-(pyridazin-3-ylmethyl)-2,3-dihydro-1H-pyrido [2,3-b][1,4] thiazine-7-carboxamide], the EC50 was more than 10 µM.

`Cc1noc(CNC(=O)c2ccc3c(c2)N(Cc2cc(F)cc(F)c2)C(=O)C(C)S3)n1` (stereo not drawn) [Example 167, 4-(3,5-difluorobenzyl)-2-methyl-N-((3-methyl-1,2,4-oxadiazol-5-yl)methyl)-3-oxo-3,4-dihydro-2H-benzo[b][1,4] thiazine-6-carboxamide]: the EC50 fell in the range of 1 to 10 µM.

Turning to `O=C(NCC12C[C@H]3C[C@@H](C1)C[C@@H](C2)C3)c1ccc2c(c1)N(Cc1ccccc1F)C(=O)CS2` [Example 24, N-((3r,5r,7r)-adamantan-1-ylmethyl)-4-(2-fluorobenzyl)-3-oxo-3,4-dihydro-2H-benzo[b-1,4]thiazine-6-carboxamide], the EC50 is more than 10 µM.

Turning to `O=C(NCc1cccs1)c1ccc2c(c1)N(Cc1c(F)cccc1Cl)C(=O)CS2` [Example 107, 4-(2-chloro-6-fluorobenzyl)-3-oxo-N-(thiophen-2-ylmethyl)-3,4-dihydro-2H-benzo[b-1,4]thiazine-6-carboxamide], the EC50 lay in the range of 1 to 10 µM.

For `CC1Sc2ccc(C(=O)NCc3c(F)cc(F)cc3F)cc2N(Cc2c(F)ccc(O)c2Cl)C1=O` (stereo not drawn) [Example 155, 4-(2-chloro-6-fluoro-3-hydroxybenzyl)-2-methyl-3-oxo-N-(2,4,6-trifluorobenzyl)-3,4-dihydro-2H-benzo[b][1,4] thiazine-6-carboxamide], the EC50 is less than 1 µM.

On to `CC1Sc2ncc(C(=O)NCc3ccn(C)n3)cc2N(Cc2cc(F)cc(F)c2)C1=O` (stereo not drawn) [Example 215, 1-(3,5-difluorobenzyl)-3-methyl-N-((1-methyl-1H-pyrazol-3-yl)methyl)-2-oxo-2,3-dihydro-1H-pyrido[2,3-b][1,4]thiazine-7-carboxamide], for which the EC50 is more than 10 µM.

Regarding `CC(NC(=O)c1ccc2c(c1)N(Cc1ccccc1)C(=O)CS2)c1ccc(S(C)(=O)=O)cc1` (stereo not drawn) [Example 57, 4-benzyl-N-(1-(4-(methylsulfonyl)phenyl)ethyl)-3-oxo-3,4-dihydro-2H-benzo[b-1,4]thiazine-6-carboxamide], the half-maximal effective concentration (EC50) was more than 10 µM.

Regarding `O=C(NCc1ccco1)c1ccc2c(c1)N(C(=O)c1ccccc1F)CCS2(=O)=O` [Example 254, 4-(2-Fluorobenzoyl)-N-(furan-2-ylmethyl)-3,4-dihydro-2H-benzo[b-1,4]thiazine-6-carboxamide 1,1-dioxide], the EC50 was more than 10 µM.

Take `O=C(NCc1c(F)cc(F)cc1F)c1cnc2c(c1)N(Cc1cc(F)cc(F)c1)C(=O)CC2` [Example 276, 5-(3,5-Difluorobenzyl)-6-oxo-N-(2,4,6-trifluorobenzyl)-5,6,7,8-tetrahydro-1,5-naphthyridine-3-carboxamide]: the EC50 lay within 1 to 10 µM.

`O=C(NCc1ccc(F)cc1F)c1cnc2c(c1)N(Cc1cc(F)cc(F)c1)C(=O)CC2` [Example 277, N-(2,4-difluorobenzyl)-5-(3,5-difluorobenzyl)-6-oxo-5,6,7,8-tetrahydro-1,5-naphthyridine-3-carboxamide]: the EC50 is 1 to 10 µM.

Regarding `CC1Oc2ncc(C(=O)NCc3cccc(C(F)(F)F)c3)cc2N(Cc2c(F)cccc2Cl)C1=O` (stereo not drawn) [Example 244, 1-(2-chloro-6-fluorobenzyl)-3-methyl-2-oxo-N-(3-(trifluoromethyl)benzyl)-2,3-dihydro-1H-pyrido[2,3-b][1,4]oxazine-7-carboxamide], the 50% effective concentration (EC50) was more than 10 µM.

For the compound `O=C(NCc1ccco1)c1ccc2c(c1)N(Cc1ccccc1)CC[S+]2[O-]` (stereo not drawn) [Example 251, 4-Benzyl-N-(furan-2-ylmethyl)-3,4-dihydro-2H-benzo[b-1,4]thiazine-6-carboxamide 1-oxide], the EC50 is more than 10 µM.

Turning to `O=C(NCc1ccco1)c1ccc2c(c1)N(Cc1ccncc1)C(=O)CS2` [Example 28, N-(furan-2-ylmethyl)-3-oxo-4-(pyridin-4-ylmethyl)-3,4-dihydro-2H-benzo[b-1,4]thiazine-6-carboxamide], the EC50 is more than 10 µM.

The term EC50 denotes the concentration that produces a half-maximal response.
